Experimental data reported in patent US20100130597A1, “DNA-PKCS MODULATES ENERGY REGULATION AND BRAIN FUNCTION” (The United State of America, as represented by the …, priority 2007, published 2010).

How the values were obtained:
C2C12 cells [1] = assay: Cellular lactate and pyruvate in C2C12 cells; type: cell-based; details: 0.8 μM
C2C12 cells [2] = assay: Intercellular NAD:NADH ratio in C2C12 cells; type: cell-based; details: FIG. 54, Resveratrol 50 μM data not shown
Description: To test whether DNA-PKcs inhibitor affects Sirt1 activity, the intercellular NAD:NADH ratio was measured in C2C12 cells treated with Cpd36.

Forced swim test (FST) = type: in vivo, mice
Description: (§1) Elevated plus maze tests, light/dark chamber tests, forced swim tests (FST) and hot plate tests were performed as described earlier.

[3] = Blood lactate during standardized treadmill test; type: in vivo, mice; details: capillary blood during standardized treadmill test, FIG. 46A
Description: The use of Cpd36 may also facilitate more rapid recovery following intense physical exertion. Blood lactate concentrations were measured in capillary blood during a standardized treadmill test.

[4] = Treadmill running endurance; type: in vivo, mice
Description: Previous studies have shown that increased expression of PPARδ or PGC-1α in skeletal muscle decreases exercise-induced fatigue. Therefore, tests were performed to ascertain what was the physical endurance of 4, 7 and 14 month-old SCID and WT mice using treadmill running. Prior to the exercise test, the mice were accustomed to and trained by running on an Exer-3/6 mouse treadmill (Columbus Instruments) at 7 m/min for 5 minutes for 3 days. For the endurance test, the treadmill speed was increased to 10 m/min and mice were allowed to run until exhaustion.
The therapeutic potential of DNA-PKcs inhibitors to reverse physical decline with aging was tested. In particular, the physical endurance of obese and middle-aged mice treated with Cpd36 was examined by treadmill running. Obese mice fed a high-fat diet that were treated with Cpd36 were able to run 40-50% farther over a given period of time than the control mice fed the same high fat diet (FIG. 45), as measured by totaling the distance run on a treadmill. Middle-aged mice (13 months) fed a breeder diet who were similarly treated with Cpd36 were also able to run 40-50% farther than middle aged mice that received no such treatment (data not shown).

[5] = Body weight, fat and lean mass, food intake and activity of treated mice; type: in vivo
Description: To determine the source of the body weight difference observed as described in Example 9, the fat and lean mass of the animals used in these experiments were measured using NMR spectroscopy (Bruker BioSpin Corporation, Houston, Tex.). Body fat indices were calculated by dividing fat or lean mass by body weight.
(§2) The therapeutic potential of DNA-PKcs inhibitors to treat insulin resistance and diabetes was tested in vivo using high-fat induced type 2 diabetes and obesity models. We examined the effects of DNA-PKcs inhibition by feeding C57BL6/J mice with Compound 36 (Cpd36) or vehicle. Mice were treated with Cpd36 (8 mg/kg body weight) twice daily by oral gavage for three months in all efficacy studies shown in FIGS. 40-47.
Body weight was monitored in mice receiving Cpd36 (8 mg/kg body weight) twice daily by oral gavage for three months.

[6] = Blood-brain barrier penetration inferred from behavioural effects; type: in vivo, mice; details: inferred from decreased anxiety/depression at a low-dose
Source text: For any central nervous system drugs, a major rate-limiting step for uptake into the brain is BBB permeability. […] The BBB is an essential physiological barrier for the maintenance and regulation of brain function. It is comprised of brain microvascular endothelial cells that are connected by tight junctions. This transvascular route to the brain is impenetrable to the majority of drugs. Enhanced BBB permeability is obtained, for example, by increasing the lipid solubility of the water-soluble molecules.

[7] = Glucose levels, insulin tolerance and glucose tolerance tests in treated mice; type: in vivo; details: for fed glucose levels in the serum: 8 mg/kg twice daily oral gavage three months
Description: as §2

Elevated plus maze test = type: in vivo, mice
Description: To evaluate whether SCID mice may also have altered anxiety, fear and depression-like traits, an elevated plus maze test was performed, which is a commonly used test to quantify the level of anxiety- and depression-like traits in rodents (Pellow et al. J. Neurosci. Methods 14: 149-67 (1985)). The elevated plus maze has narrow runways that are located 16 inches above the surface that are either closed or open. The animal is placed in the center of an elevated 4-arm maze in which 2 arms are open and 2 are enclosed. Mice generally avoid the open arms because of their fear of open space and height. The elevated plus-maze is used to determine the rodent's response to a potentially dangerous environment and anxiety-related behavior is measured by the degree to which the rodent avoids the unenclosed arms of the maze. Increase in the number of times the animal enters the open arm and the amount of time spent in the open arms reflect decreased anxiety and depression.
as §1

Light/dark chamber test = type: in vivo; details: treated vs untreated mice
Description: WT and SCID mice were tested in another anxiety test using the light-dark box (Bourin and Hascoet, Eur J Pharmacol 463:55 (2003)). The light-dark box test is based on the innate aversion of rodents to brightly illuminated areas and on the spontaneous exploratory behavior of rodents in response to a mildly stressful situation, that is, a novel environment and light (Crawley and Goodwin Pharmacol Biochem Behav 13:167, 1980). In the light-dark test, increased activity in the light compartment indicates decreased anxiety.
as §1

[8] = Hot plate test, latency for pain reaction; type: in vivo, mice; details: hot plate, FIG. 48E
Description: Epidemiological studies indicate that people with mood disorders are twice as likely to have chronic pain compared to people without mood disorders (Ohayon et al., Arch. Gen. Psychiatry 60: 39-47 (2003)). Although it is possible that pain contributes to the depressed mood, it is also possible that perception of pain is increased in people with mood disorders. To determine whether SCID mice have altered pain tolerance, the latency for pain reaction to a hot plate was measured. […] (FIG. 30) and at 55° C.
Because tolerance to pain (Example 26) is also linked to the serotonergic pathways, measurements of the latency to pain reaction on hot plate after saline, serotonin reuptake inhibitor fluoxetine (Prozac) or serotonin antagonist GR38032F (Zofran) injection were made.
as §1

## O=c1cc(N2CCOCC2)oc2c(-c3cccc4c5c(sc34)CCCC5)cccc12 [Compound 36, 8-(6′,7′,8′,9′-Tetrahydrodibenzothiophen-4′-yl)-2-N-morpholinochromen-4-one]
C2C12 cells [1]; 16 hrs, FIG. 46B
  lactate levels in cell extracts: Reduced lactate levels
C2C12 cells [1]; data not shown
  Cellular pyruvate level: increased
C2C12 cells [2]
  intercellular NAD:NADH ratio: increased the NAD:NADH ratio
Forced swim test (FST); FIG. 47D
  mobility vs untreated mice: more mobile
Forced swim test (FST); data not shown
  immobility in the forced swim test: decreased immobility
[3]
  serum lactate levels: Significantly lower serum lactate levels
[4]; middle-aged mice (13 months) on breeder diet, data not shown
  distance run on treadmill, farther than untreated: 40-50%
[4]; obese mice on high-fat diet, FIG. 45
  distance run on treadmill, farther than control: 40-50%
[5]; HFD mice vs control, FIG. 44
  fat mass (NMR): reduction in fat mass
  lean mass (NMR): slight increase in lean mass
[5]; HFD mice, 8 mg/kg twice daily oral gavage three months, FIG. 43
  body weight: did not increase in body weight substantially
[5]; HFD mice, 8 mg/kg twice daily oral gavage three months, data not shown
  food intake: did increase
[5]; HFD mice, data not shown
  activity of mice vs control HFD mice: no significant difference
[5]; mice on HFD 3 months, 8 mg/kg twice daily oral gavage 3 months, vs vehicle
  mesenteric fat: reduced mesenteric fat significantly
[6]
  blood-brain barrier (BBB) penetration: can penetrate the blood-brain barrier (BBB) efficiently
[7]; HFD (obese) mice, FIG. 40A
  fed glucose levels in the serum: lowered fed glucose levels
[7]; middle-aged mice (breeder diet 13 months), FIG. 40B
  fed glucose levels in the serum: lowered fed glucose levels
[7]; middle-aged mice, FIG. 41
  glucose tolerance: increased
  insulin sensitivity: increased
[7]; obese mice, FIG. 42
  glucose tolerance: increased
  insulin sensitivity: increased
Elevated plus maze test; elevated plus maze and light/dark chamber tests, FIGS. 47 and 48
  levels of anxiety/depression: dramatically lower levels of anxiety/depression
Elevated plus maze test; treated vs untreated mice
  time in closed arm of the elevated plus maze: less time in a closed arm
Light/dark chamber test
  time in the light compartment: more time in the light compartment
  time to enter the light chamber: quicker to enter the light chamber
[8]
  pain sensation: decreased pain sensation
